What was measured:
Erlich tumors = test: In vivo efficacy (delay in tumor growth, T/C) in Balb/C mice carrying Erlich tumors
Protocol: For each of the following examples, the pharmaceutical formulations were prepared just prior to use. Various amounts of brefeldin A (mg of drug/kg animal's body weight) were weighed out and varying amounts of solvent was used to mix the drug. The mixtures were either vortexed (mechanical mixing) or sonicated until drug was either completely soluble or only a very small amount appeared to settle in the bottom the test tube. Chitin was then added and the mixture was sonicated.
Six days following inoculation, the mice normally grew a tumor on each flank, ranging in size from 100 to 120 mm^3. The mice (average weight=25 g) were randomized and separated into groups. Each tumor was then measured and the tumor volume calculated and recorded. In experimental groups, one tumor on each mouse was treated with the appropriate agent (drug versus drug in formulation) with an injection volume of 50 ul using a 22G½ needle. The control group was left untreated.
Antitumor activity was determined by inhibition of tumor growth and survival rate. Each tumor was measured two to three times per week. In nude mice, tumors were measured for 10 days or until mice survived. In Balb/C tumors were measured for up to 20 days following treatment. The volume of the tumor was calculated and recorded. Tumor volume data is analyzed by using simple regression model. […]
Balb/C mice are divided into groups and given treatments according to Table 4. Mice are observed daily to evaluate lethal toxicity and tumors are measured on alternate days for 20 days. […]

Balb/C mice = test: Survival of Balb/C mice following treatment (deaths due to toxicity); format: in vivo; conditions: Example 3
Text: Balb/C mice are divided into groups and given treatments according to Table 3. Mice are observed daily for 25 days for deaths due to toxicity.
Balb/C mice are divided into groups and given treatments according to Table 7.

C[C@H]1CCC/C=C/[C@@H]2C[C@H](O)C[C@H]2[C@H](O)/C=C/C(=O)O1 [brefeldin A]
T/C ratio of delay in tumor growth (Erlich tumors; Example 2, groups 5, 6, and 7, given with the solvent (DMA 5-20 μl), no chitin): 1.25-1.75
T/C ratio of delay in tumor growth (Erlich tumors; Example 2, groups 8, 9, and 10, delivered with DMA (5-20 μl) and chitin): 2.00-2.75
T/C ratio of delay in tumor growth (Erlich tumors; Example 4, groups 4, 5, and 6, BFA 2 mg delivered with DMA and chitin): 2.50-2.85
T/C ratio of delay in tumor growth (Erlich tumors; Example 4, groups 7, 8, and 9, decreased dose of brefeldin A (0.5 mg) with DMA and chitin): 2.30-2.55
toxicity to mice (Balb/C mice; high doses (80 mg/kg and 40 mg/kg) with DMA, groups 4 and 8): most toxic
toxicity to mice (Balb/C mice; when chitin is added to the formulation (with DMA)): less toxicity
